Columns and labels:
[1] = tested on: Caco-2 cells; assay: CCK8 assay, Caco-2 colon cancer cells; format: cell-based; conditions: Homo sapiens, 10 μM, 48 h, read-out: cell viability rate
Experimental: (§1) C42B, PC3, Caco-2, HepG2, MCF7, HL-60, 8505 C, OVCAR-3, and A549 were cultured to screen the broad-spectrum antiproliferative activity of compound 14. For above cell lines, three thousand cells per well were seeded in the 96-well plate and treated by compound 14 for 48 or 72 h at different concentrations (0, 5, 10, and 20 μM). In addition, HepG2, HEP3B, HUH6, and HUH7 were cultured to screen its antiproliferative activity against liver cancer cell lines. For these liver cancer cell lines, two thousand cells per well were seeded in the 96-well plate and treated by compound 14 for 48 h at different concentrations (0, 0.625, 1.25, 2.5, and 5 μM). Then, 10 μl of CCK8 was added into each well and cells were incubated in a humidified atmosphere of 5% CO2 at 37 °C for 4 h. The 96-well plate was measured with a microplate reader (Bio-Tek, San Diego, CA) at a wavelength of 450 nm to calculate IC50 values.

[2] = tested on: E-cadherin, N-cadherin, and Vimentin in HepG2 cells; assay: Western blotting of epithelial–mesenchymal transition-related proteins; format: cell-based, Human
Experimental: Compound 14 at different concentrations (0, 0.5, 1, and 2 μM) was added into cancer cells solution and incubated for 48 h. Total protein was isolated from cells using RIPA buffer (Servicebio, Wuhan, China). An amount of […] of total protein were separated by sodium dodecyl sulphate polycrylamide gel electrophoresis and transferred to PVDF membranes. 5% non-fat milk (Servicebio, Wuhan, China) was used to block PVDF membranes and incubated with primary antibody for 12 h at 4 °C. Then, PVDF membranes were washed by TBST buffer (Servicebio, Wuhan, China) and incubated with secondary antibody at room temperature for 2 h. The enhanced chemiluminescence kit (Servicebio, Wuhan, China) was used to visualise immunoreactive bands. H3, GAPDH, Vimentin, N-cadherin, and E-cadherin as antibodies were purchased from Servicebio (Wuhan, China). Catalogue numbers of H3, GAPDH, Vimentin, N-cadherin, and E-cadherin as antibodies in Servicebio are GB11102, GB15004, GB11192, GB12135, and GB12868, respectively. H3K4me1 and H3K4me2 were obtained from Proteintech Group, Inc (Wuhan, China). Catalogue numbers of H3K4me1 and H3K4me2 as antibodies in Proteintech Group are 91289 and 39679, respectively.

[3] = target: T1, MAO-A (Homo sapiens, UniProt P21397); assay: Inhibitory activity against MAO-A (kynuramine); format: biochemical; conditions: tested at 250, 500, and 1000 nM
T1 construct: purchased Servicebio (Wuhan, China)
T1 sequence (P21397 whole entry, species assumed): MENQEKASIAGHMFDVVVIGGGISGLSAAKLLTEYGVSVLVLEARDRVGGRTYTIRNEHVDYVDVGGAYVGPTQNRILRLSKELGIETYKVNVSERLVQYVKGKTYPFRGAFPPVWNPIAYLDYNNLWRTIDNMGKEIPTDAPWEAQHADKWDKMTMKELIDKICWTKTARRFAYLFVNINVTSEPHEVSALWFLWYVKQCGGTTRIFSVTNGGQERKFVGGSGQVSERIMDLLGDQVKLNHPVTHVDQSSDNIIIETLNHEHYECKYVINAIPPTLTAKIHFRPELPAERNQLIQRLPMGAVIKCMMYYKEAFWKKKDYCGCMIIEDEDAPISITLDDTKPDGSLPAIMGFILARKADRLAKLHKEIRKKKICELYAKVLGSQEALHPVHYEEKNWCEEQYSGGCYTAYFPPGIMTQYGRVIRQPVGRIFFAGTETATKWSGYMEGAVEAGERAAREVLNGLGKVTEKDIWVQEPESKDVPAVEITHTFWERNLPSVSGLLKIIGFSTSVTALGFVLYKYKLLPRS
Experimental: (§2) In order to analyse the enzymatic selectivity of compound 14, MAO-A/B was purchased from Servicebio (Wuhan, China). MAO-A was dissolved in phosphate buffer (0.1 M, pH = 7.4) to get MAO-A enzymatic buffer with a concentration of 0.006 mg/ml. MAO-B was also dissolved in phosphate buffer (0.1 M, pH = 7.3) to get MAO-B enzymatic buffer with a concentration of 0.015 mg/mL. Kynuramine dihydrochloride (Servicebio, Wuhan, China) was used to get the assay buffer with a concentration of 40 μM for MAO-A and 20 μM for MAO-B. An aliquot of 97 μl of assay buffer and 3 μl of compound 14 at different concentrations (250, 500, and 1000 nM) were added into each well on the 96-well black plate. The plate was incubated at 37 °C for 20 min, and 80 μl of 2 N sodium hydroxide was added into each well to stop the reaction. The fluorescence of each well was measured using a microplate reader (Agilent Technologies Inc., CA) with an excitation at 310 nm and an emission at 380 nm.

[4] = tested on: C42B cells; assay: CCK8 assay, C42B prostate cancer cells; format: cell-based; conditions: Homo sapiens, 10 μM, 48 h, read-out: cell viability rate
Experimental: as §1

[5] = target: T2, LSD1 (Homo sapiens, UniProt O60341); assay: Dialysis assay to evaluate the reversibility; format: biochemical; conditions: dialysis against HEPES buffer, GSK-LSD1 as irreversible reference
Experimental: A mixture of compound 14 and the recombinant LSD1 was incubated for 60 min at 37 °C. Then, the system was dialysed against 50 mmol/l HEPES buffer at 37 °C for 12 h. Finally, the HEPES buffer was replaced and the system was incubated for 12 h at 37 °C. In the dialysis experiment, an irreversible inhibitor GSK-LSD1 was purchased as the reference drug (Innochem, Beijing, China).

[6] = target: T2, LSD1; assay: LSD1 screening assay kit (enzymatic activity); format: biochemical; design: purchased Cayman Chemical (Ann Arbor, MI); conditions: fluorescence, read-out: IC50 against LSD1
Experimental: After the incubation for 30 min at 37 °C, a mixture of horseradish peroxidase solution (20 μl) and fluorometric substrate solution (10 μl) was added to each well. Then, the 96-well plate was incubated for 15 min at 37 °C. Finally, the fluorescence of each well in the 96-well plate was measured at an emission wavelength of 590 nm and an excitation wavelength of 530 nm by a fluorimeter (Agilent Technologies Inc., Palo Alto, CA). Seclidemstat, a famous LSD1 inhibitor, was used as the control drug in this assay.

[7] = Toxicity in xenograft study: weight of mice, haematoxylin and eosin staining of organs; format: in vivo; conditions: 60 mg/kg by gavage every day for 21 days, vs control group
[8] = target: T3, MAO-B (Homo sapiens, UniProt P27338); assay: Inhibitory activity against MAO-B (kynuramine); format: biochemical; conditions: tested at 250, 500, and 1000 nM
T3 construct: purchased Servicebio (Wuhan, China)
T3 sequence (P27338 whole entry, species assumed): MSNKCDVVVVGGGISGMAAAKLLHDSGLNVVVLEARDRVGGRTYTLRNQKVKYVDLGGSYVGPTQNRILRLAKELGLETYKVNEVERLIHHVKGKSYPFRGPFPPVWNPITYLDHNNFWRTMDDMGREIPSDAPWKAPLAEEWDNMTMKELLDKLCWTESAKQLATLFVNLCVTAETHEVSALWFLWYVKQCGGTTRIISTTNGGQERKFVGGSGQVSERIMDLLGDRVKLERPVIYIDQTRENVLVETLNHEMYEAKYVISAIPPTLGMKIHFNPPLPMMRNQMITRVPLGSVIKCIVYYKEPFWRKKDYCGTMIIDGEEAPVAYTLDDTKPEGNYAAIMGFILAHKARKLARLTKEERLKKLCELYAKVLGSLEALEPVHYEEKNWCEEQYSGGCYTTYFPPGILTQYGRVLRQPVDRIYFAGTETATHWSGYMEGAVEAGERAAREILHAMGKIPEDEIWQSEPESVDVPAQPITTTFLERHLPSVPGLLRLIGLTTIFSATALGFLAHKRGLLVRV
Experimental: as §2

[9] = tested on: HL-60 cells; assay: CCK8 assay, HL-60 leukaemia cells; format: cell-based; conditions: Homo sapiens, 10 μM, 48 h, read-out: cell viability rate
Experimental: as §1

Compound: COc1ccc(CN(C(=O)CCN2C(=O)CCCC2=O)c2cc(OC)c(OC)c(OC)c2)cc1 [Compound 14, 3-(2,6-dioxopiperidin-1-yl)-N-(4-methoxybenzyl)-N-(3,4,5-trimethoxyphenyl)propanamide]
- viability at 10 µM [1]: 72.3%
- expression level of E-cadherin [2]: increases the expression level of E-cadherin
- expression levels of N-cadherin and Vimentin [2]: decreases the expression levels of N-cadherin and Vimentin
- IC50 [3]: > 1000 nM
- viability at 10 µM [4]: 88%
- reversibility of LSD1 inhibition [5]: inhibits LSD1 in a reversible manner
- IC50 [6]: 180 nM
- body weight of nude mice [7]: did not show significant changes in body weight
- haematoxylin and eosin staining of liver, spleen, lung, and kidney [7]: no morphological differences
- IC50 [8]: > 1000 nM
- viability at 10 µM [9]: 35.7%
